Measurements reported in patent publication US9833497B2, “Human originated EGF domain proteins and use of the same” (CHENGDU SOURCEBIO LIMITED-LIABILITY COMPANY, priority 2013, dated 2017).

Tests used:
Format in all cases: cell-based
Enterobacter cloacae = test: MIC against Gram-negative bacteria: Enterobacter cloacae; conditions: 5×10^5 CFU/mL
Method: (§1) 1. Gram-negative bacteria, such as E. coli BL21, Pseudomonas aeruginosa, Klebsiella pneumonia, Enterobacter cloacae, Aeromonas hydrophila, Citrobacter diversus, Moraxella catarrhalis, Proteus mirabilis, Proteus vulgaris, Serratia marcescens, etc were streaked on solid LB medium and cultured respectively. Then, typical clones were picked, inoculated into common liquid LB medium respectively, and cultured at 37° C. with shaking at 185 rpm until the McFarland specific turbidity was 0.5. The bacterial culture of each of Gram-negative bacteria was centrifuged at 4000×g for 3 min, the supernatant was discarded, and the thalli were resuspended with fresh LB medium.
(§2) 2. The above-mentioned bacterial suspensions were diluted and inoculated into 96-well plates with the final concentration of the bacterial suspension being 5×10^5 CFU/mL per well.
(§3) 3. Each of the purified human-originated EGF domain proteins (PRT1 to PRT1498 in Table 1) was added to each of the above wells and subjected to two-fold serial dilution in concentration. Three parallel wells were set up for each concentration in the gradient.
(§4) 4. The above-mentioned 96-well plates were placed and cultured at 37° C. in shaking incubator shaking at 175 rpm. […] The minimal inhibitory concentration MIC is defined as the lowest concentration of the recombinant protein at which there is no growth of the bacteria.

Proteus vulgaris = test: MIC against Gram-negative bacteria: Proteus vulgaris; conditions: 5×10^5 CFU/mL
Method: as §1, §2, §3, §4

Klebsiella pneumonia = test: MIC against Gram-negative bacteria: Klebsiella pneumonia; conditions: 5×10^5 CFU/mL
Method: as §1, §2, §3, §4

Serratia marcescens = test: MIC against Gram-negative bacteria: Serratia marcescens; conditions: 5×10^5 CFU/mL
Method: as §1, §2, §3, §4

E. coli DH5α = test: Antibacterial activity: MIC and growth curve against E. coli DH5α in 96-well plate; conditions: minimal inhibitory concentration against E. coli DH5α; 96-well plate, 5×10^5 CFU/mL, 37° C., judged after 8 h
Method: 1. E. coli DH5α was exemplified. E. coli DH5α was streaked and cultured on LB solid medium. Then, a typical clone was picked and inoculated into common LB liquid medium, cultured at 37° C. with shaking at 185 rpm until the logarithmic growth phase was reached (OD600 of about 0.5). The bacterial culture was centrifuged at 4000×g for 3 min, the supernatant was discarded, and the thalli were resuspended with fresh LB medium.
2. The above-mentioned bacterial suspension was diluted and inoculated into a 96-well plate with the total volume of 100 μL per well and a bacterial count of 5×10^5 CFU/mL.
3. The recombinant protein hF VII-EGF1 was added to the above-mentioned wells with the final protein concentration in the well of the highest protein concentration being 50 μg/mL. Basing on this final concentration, a two-fold serial dilution was performed till a protein concentration gradient consisting of 50, 25, and 12.5 μg/mL was set up. Three parallel wells were set up for each concentration in the gradient.
as §4, with “plate was” for “plates were”, “rpm. Samples were taken every 30 min, the absorbance values were determined at 600 nm wavelength under a ultra violet spectrophotometer, and an inhibition curve was plotted.” for “rpm.”
According to the experimental procedures in Example 14, the minimal inhibitory concentrations (MIC, μg/mL) of the other human-originated EGF domain proteins (PRT2 to PRT1498 in Table 1) for E. coli DH5α were determined.

Proteus mirabilis = test: MIC against Gram-negative bacteria: Proteus mirabilis; conditions: 5×10^5 CFU/mL
Method: as §1, §2, §3, §4

Aeromonas hydrophila = test: MIC against Gram-negative bacteria: Aeromonas hydrophila; conditions: 5×10^5 CFU/mL
Method: as §1, §2, §3, §4

Citrobacter diversus = test: MIC against Gram-negative bacteria: Citrobacter diversus; conditions: 5×10^5 CFU/mL
Method: as §1, §2, §3, §4

Moraxella catarrhalis = test: MIC against Gram-negative bacteria: Moraxella catarrhalis; conditions: 5×10^5 CFU/mL
Method: as §1, §2, §3, §4

Pseudomonas aeruginosa = test: MIC against Gram-negative bacteria: Pseudomonas aeruginosa; conditions: 5×10^5 CFU/mL
Method: as §1, §2, §3, §4

E. coli BL21 = test: MIC against Gram-negative bacteria: E. coli BL21; conditions: 5×10^5 CFU/mL
Method: as §1, §2, §3, §4

[1] = 10 h cultivation at 37° C., two-fold serial dilution

PRT1228 (CPPCPKYASCHNSTHCTCEDGFRARSGRTYFHDSSEKCE; listed as Homo sapiens)
MIC against E. cloacae (Enterobacter cloacae; Enterobacter cloacae, 96-well plate, 37° C., 10 h): 12.5 µg/mL
MIC against P. vulgaris (Proteus vulgaris; Proteus vulgaris, 96-well plate, 37° C., 10 h): 25 µg/mL
MIC against K. pneumonia (Klebsiella pneumonia; Klebsiella pneumonia, 96-well plate, 37° C., 10 h): 25 µg/mL
MIC against S. marcescens (Serratia marcescens; Serratia marcescens, 96-well plate, 37° C., 10 h): 50 µg/mL
MIC (E. coli DH5α): 12.5 µg/mL
MIC against P. mirabilis (Proteus mirabilis; Proteus mirabilis, 96-well plate, 37° C., 10 h): 12.5 µg/mL
MIC against A. hydrophila (Aeromonas hydrophila; Aeromonas hydrophila, 96-well plate, 37° C., 10 h): 25 µg/mL
MIC against C. diversus (Citrobacter diversus; Citrobacter diversus, 96-well plate, 37° C., 10 h): 50 µg/mL
MIC against M. catarrhalis (Moraxella catarrhalis; Moraxella catarrhalis, 96-well plate, 37° C., 10 h): 25 µg/mL
MIC against P. aeruginosa (Pseudomonas aeruginosa; Pseudomonas aeruginosa, 96-well plate, 37° C., 10 h): 50 µg/mL
MIC against E. coli BL21 (E. coli BL21; E. coli BL21, 96-well plate, 37° C., 10 h): 25 µg/mL

PRT780 (EYSSCSRHPCQNGGTCINGRTSFTCACRHPFTGDNCT; listed as Homo sapiens)
MIC (μg/mL) E. cloacae (Enterobacter cloacae; E. cloacae, 10 h cultivation at 37° C.): 12.5 µg/mL
MIC (μg/mL) P. vulgaris (Proteus vulgaris; P. vulgaris, 10 h cultivation at 37° C.): 50 µg/mL
MIC (μg/mL) K. pneumonia (Klebsiella pneumonia; K. pneumonia, 10 h cultivation at 37° C.): 50 µg/mL
MIC (μg/mL) S. marcescens (Serratia marcescens; S. marcescens, 10 h cultivation at 37° C.): 12.5 µg/mL
MIC (E. coli DH5α): 12.5 µg/mL
MIC (μg/mL) P. mirabilis (Proteus mirabilis; P. mirabilis, 10 h cultivation at 37° C.): 25 µg/mL
MIC (μg/mL) A. hydrophila (Aeromonas hydrophila; A. hydrophila, 10 h cultivation at 37° C.): 50 µg/mL
MIC (μg/mL) C. diversus (Citrobacter diversus; C. diversus, 10 h cultivation at 37° C.): 25 µg/mL
MIC (μg/mL) M. catarrhalis (Moraxella catarrhalis; M. catarrhalis, 10 h cultivation at 37° C.): 12.5 µg/mL
MIC (μg/mL) P. aeruginosa (Pseudomonas aeruginosa; P. aeruginosa, 10 h cultivation at 37° C.): 12.5 µg/mL
MIC (μg/mL) E. coli BL21 (E. coli BL21; E. coli BL21, 10 h cultivation at 37° C.): 50 µg/mL

PRT556 (CQCSSPGVADDRCDPDTGQCRCRVGFEGATCDRCAPGYFHFPLCQL; listed as Homo sapiens)
MIC against E. cloacae (Enterobacter cloacae; 96-well plate, 37° C., 10 h): 12.5 µg/mL
MIC against P. vulgaris (Proteus vulgaris; 96-well plate, 37° C., 10 h): 12.5 µg/mL
MIC against K. pneumonia (Klebsiella pneumonia; 96-well plate, 37° C., 10 h): 50 µg/mL
MIC against S. marcescens (Serratia marcescens; 96-well plate, 37° C., 10 h): 25 µg/mL
MIC (E. coli DH5α): 25 µg/mL
MIC against P. mirabilis (Proteus mirabilis; 96-well plate, 37° C., 10 h): 25 µg/mL
MIC against A. hydrophila (Aeromonas hydrophila; 96-well plate, 37° C., 10 h): 50 µg/mL
MIC against C. diversus (Citrobacter diversus; 96-well plate, 37° C., 10 h): 25 µg/mL
MIC against M. catarrhalis (Moraxella catarrhalis; 96-well plate, 37° C., 10 h): 12.5 µg/mL
MIC against P. aeruginosa (Pseudomonas aeruginosa; 96-well plate, 37° C., 10 h): 12.5 µg/mL
MIC against E. coli BL21 (E. coli BL21; 96-well plate, 37° C., 10 h): 50 µg/mL

PRT1134 (NVDDCLMRPCANGATCLDGINRFSCLCPEGFAGRFCT; listed as Homo sapiens)
MIC E. cloacae (Enterobacter cloacae; [1]): 12.5 µg/mL
MIC P. vulgaris (Proteus vulgaris; [1]): 50 µg/mL
MIC K. pneumonia (Klebsiella pneumonia; [1]): 25 µg/mL
MIC S. marcescens (Serratia marcescens; [1]): 12.5 µg/mL
MIC (E. coli DH5α): 12.5 µg/mL
MIC P. mirabilis (Proteus mirabilis; [1]): 12.5 µg/mL
MIC A. hydrophila (Aeromonas hydrophila; [1]): 12.5 µg/mL
MIC C. diversus (Citrobacter diversus; [1]): 12.5 µg/mL
MIC M. catarrhalis (Moraxella catarrhalis; [1]): 12.5 µg/mL
MIC P. aeruginosa (Pseudomonas aeruginosa; [1]): 12.5 µg/mL
MIC E. coli BL21 (E. coli BL21; [1]): 25 µg/mL

PRT727 (EFDDCQIWGICDQKCESRPGRHLCHCEEGYILERGQYCK; listed as Homo sapiens)
MIC E. cloacae (Enterobacter cloacae; 96-well plate, 37° C., 10 h): 50 µg/mL
MIC P. vulgaris (Proteus vulgaris; 96-well plate, 37° C., 10 h): 12.5 µg/mL
MIC K. pneumonia (Klebsiella pneumonia; 96-well plate, 37° C., 10 h): 12.5 µg/mL
MIC S. marcescens (Serratia marcescens; 96-well plate, 37° C., 10 h): 50 µg/mL
MIC (E. coli DH5α): 12.5 µg/mL
MIC P. mirabilis (Proteus mirabilis; 96-well plate, 37° C., 10 h): 50 µg/mL
MIC A. hydrophila (Aeromonas hydrophila; 96-well plate, 37° C., 10 h): 25 µg/mL
MIC C. diversus (Citrobacter diversus; 96-well plate, 37° C., 10 h): 12.5 µg/mL
MIC M. catarrhalis (Moraxella catarrhalis; 96-well plate, 37° C., 10 h): 25 µg/mL
MIC P. aeruginosa (Pseudomonas aeruginosa; 96-well plate, 37° C., 10 h): 50 µg/mL
MIC E. coli BL21 (E. coli BL21; 96-well plate, 37° C., 10 h): 25 µg/mL
